Measurements published in patent publication US20070128217A1 (priority 2003, published 2007).

Experiments:
[1] = tested on: antibodies in sera from SARS patients (sera 1a, 1b, 2, 6, 37, 62, London, SARS-yellow, SARS-green); assay type: binding, human; set-up: Binding of serum 6 to linear peptides of protein X1 of SARS-CoV Urbani / Binding of serum 37 to linear peptides of protein X1 of SARS-CoV Urbani / Binding of serum 6 to looped/cyclic peptide (PEPSCAN-ELISA) / Binding of serum 37 to looped/cyclic peptide (PEPSCAN-ELISA) / Binding of serum 37 to looped/cyclic peptides of protein X1 of SARS-CoV Urbani / Binding of serum 6 to linear peptides of protein X2 / Binding of serum 37 to linear peptides of protein X2 / Binding of serum 37 to looped/cyclic peptides of protein X2 of SARS-CoV Urbani / Binding of serum 6 to linear peptides of protein M of SARS-CoV Urbani / Binding of serum 37 to linear peptides of protein M of SARS-CoV Urbani / Binding of serum 6 to looped/cyclic peptides of protein M of SARS-CoV Urbani / Binding of serum 37 to looped/cyclic peptides of protein M of SARS-CoV Urbani / Binding of serum 6 to linear peptides of protein X3 of SARS-CoV Urbani / Binding of serum 37 to linear peptides of protein X3 of SARS-CoV Urbani / Binding of serum 37 to looped/cyclic peptides of protein X3 of SARS-CoV Urbani / Binding of serum 6 to linear peptides of protein X4 of SARS-CoV Urbani / Binding of serum 37 to linear peptides of protein X4 of SARS-CoV Urbani / Binding of serum 37 to looped/cyclic peptides of protein X4 of SARS-CoV Urbani / Binding of serum 6 to linear peptides of protein X5 of SARS-CoV Urbani / Binding of serum 37 to linear peptides of protein X5 of SARS-CoV Urbani / Binding of serum 37 to looped/cyclic peptides of protein X5 of SARS-CoV Urbani / Binding of serum 6 to linear peptides of protein N of SARS-CoV Urbani / Binding of serum 37 to linear peptides of protein N of SARS-CoV Urbani / Binding of serum 6 to linear peptide (PEPSCAN-ELISA) / Binding of serum 1a to looped/cyclic peptides of protein N of SARS-CoV Urbani / Binding of serum 1b to looped/cyclic peptides of protein N of SARS-CoV Urbani / Binding of serum 2 to looped/cyclic peptides of protein N of SARS-CoV Urbani / Binding of serum 6 to looped/cyclic peptides of protein N of SARS-CoV Urbani / Binding of serum 37 to looped/cyclic peptides of protein N of SARS-CoV Urbani / Binding of serum 62 to looped/cyclic peptides of protein N of SARS-CoV Urbani / Binding of serum London to looped/cyclic peptides of protein N of SARS-CoV Urbani / Binding of serum SARS-green to looped/cyclic peptides of protein N of SARS-CoV Urbani: unit not given here
[2] = tested on: control sera (pooled serum of ten healthy LUMC hospital workers; commercial negative donor pooled serum from the Dutch bloodbank); assay type: binding, human; set-up: Binding of Control serum LUMC to linear peptides / Binding of Control serum Blood-bank to linear peptides / Binding of Control serum LUMC to looped peptides / Binding of Control Serum Blood-Bank to Looped peptides / Binding of Control serum LUMC to linear peptides of the protein M of SARS-CoV Urbani / Binding of Control serum Blood-bank to linear peptides of the protein M of SARS-CoV Urbani / Binding of Control serum LUMC to looped peptides of the protein M of SARS-CoV Urbani / Binding of Control Serum Blood-Bank to Looped peptides of the protein M of SARS-CoV Urbani: unit not given here
[3] = tested on: rabbit serum obtained by immunizing a rabbit with the SARS-CoV strain Frankfurt 1; assay type: binding; set-up: Binding of a rabbit serum to linear peptides / Binding of a rabbit serum to looped peptides / Rabbit serum linear peptides / Rabbit serum looped peptides / Binding of a rabbit serum to linear peptides of protein N of SARS-CoV Urbani (Rabbit serum linear peptides) / Binding of a rabbit serum to looped/cyclic peptides of protein N of SARS-CoV Urbani (Rabbit serum looped peptides): unit not given here

IKLVFLWLLWPVTLA
0.8: Binding of serum 1b to looped/cyclic peptides of protein M of SARS-CoV Urbani [1] | Binding of serum 37 to looped/cyclic peptides of protein M of SARS-CoV Urbani [1] | Binding of serum 62 to looped/cyclic peptides of protein M of SARS-CoV Urbani [1]
0.3: Binding of serum London to looped/cyclic peptides of protein M of SARS-CoV Urbani [1] | Binding of serum SARS-green to linear peptides of protein M of SARS-CoV Urbani [1] | Binding of serum SARS-green to looped/cyclic peptides of protein M of SARS-CoV Urbani [1] | Rabbit serum linear peptides [3]
0.1: Binding of serum SARS-yellow to linear peptides of protein M of SARS-CoV Urbani [1]
0.4: Binding of Control serum LUMC to linear peptides of the protein M of SARS-CoV Urbani [2]
0.0: Rabbit serum looped peptides [3]
0.7: Binding of serum 1a to linear peptides of protein M of SARS-CoV Urbani [1] | Binding of serum 1a to looped/cyclic peptides of protein M of SARS-CoV Urbani [1] | Binding of serum 2 to linear peptides of protein M of SARS-CoV Urbani [1] | Binding of serum 62 to linear peptides of protein M of SARS-CoV Urbani [1] | Binding of Control serum Blood-bank to linear peptides of the protein M of SARS-CoV Urbani [2] | Binding of Control serum LUMC to looped peptides of the protein M of SARS-CoV Urbani [2]
0.9: Binding of serum 6 to looped/cyclic peptides of protein M of SARS-CoV Urbani [1] | Binding of Control Serum Blood-Bank to Looped peptides of the protein M of SARS-CoV Urbani [2]
0.6: Binding of serum 2 to looped/cyclic peptides of protein M of SARS-CoV Urbani [1] | Binding of serum 37 to linear peptides of protein M of SARS-CoV Urbani [1] | Binding of serum London to linear peptides of protein M of SARS-CoV Urbani [1]
0.5: Binding of serum 1b to linear peptides of protein M of SARS-CoV Urbani [1] | Binding of serum 6 to linear peptides of protein M of SARS-CoV Urbani [1] | Binding of serum SARS-yellow to looped/cyclic peptides of protein M of SARS-CoV Urbani [1]

VTIYSHLLLVAAGME
0.6: Binding of serum 37 to linear peptides of protein X1 of SARS-CoV Urbani [1] | Binding of serum 62 to linear peptides of protein X1 of SARS-CoV Urbani [1] | Binding of serum SARS-yellow to linear peptides of protein X1 of SARS-CoV Urbani [1] | Binding of Control serum LUMC to looped peptides [2]
0.2: Binding of serum London to looped/cyclic peptide (PEPSCAN-ELISA) [1]
0.8: Binding of serum 1a to linear peptides of protein X1 of SARS-CoV Urbani [1]
0.5: Binding of serum 1a to looped/cyclic peptide (PEPSCAN-ELISA) [1] | Binding of serum 2 to linear peptides of protein X1 of SARS-CoV Urbani [1] | Binding of serum 2 to looped/cyclic peptide (PEPSCAN-ELISA) [1] | Binding of serum 37 to looped/cyclic peptide (PEPSCAN-ELISA) [1] | Binding of Control serum Blood-bank to linear peptides [2] | Binding of Control serum LUMC to linear peptides [2] | Binding of a rabbit serum to looped peptides [3]
0.1: Binding of a rabbit serum to linear peptides [3]
0.4: Binding of serum 1b to looped/cyclic peptide (PEPSCAN-ELISA) [1] | Binding of serum 6 to linear peptides of protein X1 of SARS-CoV Urbani [1] | Binding of serum 62 to looped/cyclic peptide (PEPSCAN-ELISA) [1] | Binding of Control Serum Blood-Bank to Looped peptides [2]
0.3: Binding of serum 6 to looped/cyclic peptide (PEPSCAN-ELISA) [1] | Binding of serum London to linear peptides of protein X1 of SARS-CoV Urbani [1] | Binding of serum SARS-green to linear peptides of protein X1 of SARS-CoV Urbani [1] | Binding of serum SARS-green to looped/cyclic peptide (PEPSCAN-ELISA) [1] | Binding of serum SARS-yellow to looped/cyclic peptide (PEPSCAN-ELISA) [1]
0.7: Binding of serum 1b to linear peptides of protein X1 of SARS-CoV Urbani [1]

YSHLLLVAAGMEAQF
0.7: Binding of serum 1a to linear peptides of protein X1 of SARS-CoV Urbani [1] | Binding of serum 37 to looped/cyclic peptide (PEPSCAN-ELISA) [1] | Binding of serum 62 to linear peptides of protein X1 of SARS-CoV Urbani [1]
0.1: Binding of a rabbit serum to linear peptides [3]
0.5: Binding of serum 2 to linear peptides of protein X1 of SARS-CoV Urbani [1] | Binding of serum 2 to looped/cyclic peptide (PEPSCAN-ELISA) [1] | Binding of serum 6 to linear peptides of protein X1 of SARS-CoV Urbani [1] | Binding of serum 62 to looped/cyclic peptide (PEPSCAN-ELISA) [1] | Binding of serum SARS-green to looped/cyclic peptide (PEPSCAN-ELISA) [1] | Binding of Control serum LUMC to linear peptides [2]
0.3: Binding of serum 6 to looped/cyclic peptide (PEPSCAN-ELISA) [1] | Binding of serum London to linear peptides of protein X1 of SARS-CoV Urbani [1] | Binding of serum London to looped/cyclic peptide (PEPSCAN-ELISA) [1] | Binding of serum SARS-green to linear peptides of protein X1 of SARS-CoV Urbani [1] | Binding of serum SARS-yellow to looped/cyclic peptide (PEPSCAN-ELISA) [1]
0.6: Binding of serum 1b to linear peptides of protein X1 of SARS-CoV Urbani [1] | Binding of serum 37 to linear peptides of protein X1 of SARS-CoV Urbani [1] | Binding of Control serum Blood-bank to linear peptides [2] | Binding of Control serum LUMC to looped peptides [2]
0.4: Binding of serum 1a to looped/cyclic peptide (PEPSCAN-ELISA) [1] | Binding of serum 1b to looped/cyclic peptide (PEPSCAN-ELISA) [1] | Binding of serum SARS-yellow to linear peptides of protein X1 of SARS-CoV Urbani [1] | Binding of Control Serum Blood-Bank to Looped peptides [2] | Binding of a rabbit serum to looped peptides [3]
